Target: T1, acetylcholinesterase (Rattus norvegicus, UniProt P37136)
T1 construct: Using a rat brain homogenate as a source of acetylcholinesterase; from tissue; host or cells: rat brain homogenate
Experiment: biochemical
Settings: rat brain homogenate as source of acetylcholinesterase; acetylthiocholine substrate, DTNB, absorbance at 412 nm
Protocol: Using a rat brain homogenate as a source of acetylcholinesterase, the esterase activity was determined in accordance with the method of Ellman et al^1).
^1); Ellman. G. L., Courtney, K. D., Andres, V. and Featherstone, R. M., (1961), Biochem. Pharmacol., 7, 88-95.

T1 sequence (P37136 32-614): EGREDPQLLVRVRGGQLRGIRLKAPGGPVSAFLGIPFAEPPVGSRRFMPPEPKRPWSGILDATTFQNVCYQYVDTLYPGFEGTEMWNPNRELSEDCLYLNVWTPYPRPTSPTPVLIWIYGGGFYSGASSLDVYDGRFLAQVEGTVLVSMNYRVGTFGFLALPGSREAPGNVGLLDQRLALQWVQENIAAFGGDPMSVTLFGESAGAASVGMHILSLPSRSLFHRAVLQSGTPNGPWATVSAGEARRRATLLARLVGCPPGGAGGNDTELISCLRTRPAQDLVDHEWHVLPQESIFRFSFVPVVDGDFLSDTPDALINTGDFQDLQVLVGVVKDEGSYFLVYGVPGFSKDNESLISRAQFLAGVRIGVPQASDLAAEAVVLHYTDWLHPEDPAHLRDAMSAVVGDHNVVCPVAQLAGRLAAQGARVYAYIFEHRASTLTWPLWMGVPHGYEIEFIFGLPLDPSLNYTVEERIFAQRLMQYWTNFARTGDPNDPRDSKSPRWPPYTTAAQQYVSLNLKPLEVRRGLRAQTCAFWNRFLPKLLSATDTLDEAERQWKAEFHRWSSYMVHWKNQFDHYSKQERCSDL

**Q.** Which IC50 does the source give for `COc1cc2c(cc1OC)C(=O)C(Cc1cc[n+](Cc3ccccc3)cc1)C2` (stereo not shown) [Example 1, 1-Benzyl-4-[(5.6-dimethoxy-1-indanone)-2-yl]methylpyridinium bromide] here?
**A.** 3.8 nM
